Source: patent US7875270B2, “Treatment solution and method for preventing posterior capsular opacification by selectively inducing detachment and/or death of lens epithelial cells” (Abbott Medical Optics Inc., priority 2002, dated 2011)

Legend:
in vivo rabbit eyes [1] = test: In vivo prevention of PCO after cataract operation in rabbit eyes; details: 200 or 300 μm NEM in PBS or 170 mM monnitol
Description: The experimental group includes sixteen rabbit eyes and the control group includes four rabbit eyes. A sham cataract operation is performed on the control animals. The therapy is introduced to the others.
The pupil of each rabbit eye is preoperatively dilated with topical G Phenylephrine 10% (Alcon Labs., Inc., China) and G Cyclopentolate 1% (Bausch & Lomb Pharm., Inc., USA) three times in one hour. The rabbits are anesthetized with ketamine hydrochloride (5 mg kg-1) and xylazine hydrochloride (2 mg kg-1) and placed on an operating table. A topical anesthetic (Dieaine hydrochloride 1%) is used every five minutes on two occasions. A wire lid speculum is placed to hold the eyelids open.
A 3.2 mm scleral tunnel incision into the eye is formed at the temporal limbus. The anterior chamber is maintained with viscoelastic substances and a 4-5 mm diameter continuous curvilinear capsularhexis (CCC) is made on the anterior surface of the lens to open its bag. The treatment solution is first introduced in the LECs by hydrodissection. This ensures that the treatment fluid immediately reaches under the entire anterior capsule/LECs. This process allows for (i) separation of the lens cortex from the capsule and lens epithelium, making removal of the lens cortex easier at a later stage of the operation and (ii) the LECs to be exposed to the treatment for enough time (more than five minutes in total time).
The crystalline lens is then removed using phacoemulsification (Universal II, Alcon Labs., Inc., China). The remaining cortex is aspirated thoroughly and removed as completely as possible to expose the LECs. The lens capsular bag is then partially filed with viscoelastic material in order to maintain its shape. The viscoelastic material should not cover the LECs when the treatment solution is applied.
The treatment is spread over the inner surface of the anterior capsular bag (where the LECs attach). The anterior capsular is continuously filled by using a syringe with a bent needle. Care is taken not to over flow the bag. After the treatment solution covered the capsule bag, it is left for five minutes and then removed using a syringe.
In a few cases, IOLs are inserted. […] At the same time, the incision is enlarged to 6.0 mm and a posterior ocular lens (IOLs) (poly-methyl methacrylate, PMMA) with a 6.5 mm optic is prepared and placed into the capsular bag.
The wound is closed with or without suture.
At the completion of the surgical procedure, each rabbit eye receives subconjunctival dexamethasone (0.25 ml) and gentamicin (0.25 ml). Postoperatively, atropine sulphate 1% ophthalmic solution and neomycin sulphate-polymyxin sulphate-dexamethasone ophthalmic ointment are administered twice daily for three weeks.
The animals are evaluated for three weeks and ten weeks. […] All rabbits are evaluated by slitlamp and scored for ocular responses at 1 day and at 1, 2 and 3 weeks. (See FIG. 17, Table 1.) Three and ten weeks after surgery, the animals are anesthetized using a 2 ml intramuscular injection of 11:1 mixture of ketamine hydrochloride and xylazine 20 mg/ml and then killed with a 2 ml intravenous injection of sodium pentobarbital.
The eye globes are enucleated (some of them fixed in neutral buffered formalin 10% solution for 24 hours) and are bisected coronally just anterior to the equator. Gross examination is performed to assess. PCO development. Photographs are taken from behind (Miyake-Apple posterior photographic technique) by using a digital camera fitted to an operating microscope (Leica/Wild MZ-8, Vashaw Scientific, Inc.).
The extent and severity of PCO is scored (see FIG. 17, Table 1) according to methods reported in the literature. The lens capsules are then fixed and evaluated under a microscope (Olumpus, Optical Co. Ltd.) and photographed with a digital camera.

[2] = tested on: human LECs-CCCs freshly removed from cataract operation; test: In situ treatment of LECs attached to capsulorhexis lens capsule (LECs-CCC); format: cell-based; details: 200 or 300 μm NEM in PBS
Description: The in situ effects of a treatment solution comprising dihydrochlorothiazide (DHCT) (a cotransport interference agent from the group of the thiazide and related diuretics) and hyperosmotic NaCl on human LECs is examined. The treatment is tested on LECs that are still attached to a continuous curvilinear capsulorhexis lens capsule (LECs-CCC) which are freshly removed from a human cataract operation.
The LECs-CCCs are obtained from a cataract operation and immediately put in freshly prepared Eagle's Minimum Essential Medium (MEM) supplemented with 2 mM glutamine, 25 mmol/L Hepes (pH 7.4) without foetal cow serum (FCS) and is transferred to the laboratory for evaluation. Viable LECs are identified by staining the LECs-CCCs for five minutes with 0.2% Trypan Blue. The sheets containing more than 70% viable LECs are used to assess the efficacy of the treatment. […]
In the first step, a hyperosmotic solution of NaCl is prepared by making a stock solution of 2 M NaCl by adding 58.44 g NaCl (supplied by Sigma Chemical Co., U.S.) to 500 ml dH2O. The desired concentration of osmotic NaCl is prepared by diluting the 2M stock solution with dH2O. For example, to make a hyperosmotic solution of 170 mM NaCl, the 2M NaCl stock solution was diluted with dH2O at a ratio of […]. To make a hyperosmotic solution of 200 mM NaCl, the 2M NaCl stock solution is diluted with dH2O at a ratio of 1 to 9. Final osmolarities (mOsm/kg/H2O) are determined by a freezing point depression method using cryoscopic osmometry.
In the second step, DHCT stock solution is made by adding 25 mg DHCT to 1 ml dH2O. […]
The treatment is applied by exposing the LECs-CCCs for five minutes in a small petri dish containing the treatment solution. The treatment solution is removed after five minutes exposure by a syringe and then the fresh PBS is added in the petri dish to wash away the treatment solution. The LECs-CCCs are washed three times. The changes of the LECS are monitored under a microscope. Microscope photographs are taken at 0, 2 and 5 minutes and after wash.

in vivo rabbit eyes [3] = test: In vivo prevention of PCO after cataract operation in rabbit eyes; details: IOLs coated with 300 μm NEM in PBS, dried overnight, inserted into the lens capsular bag

## CCN1C(=O)C=CC1=O [NEM, N-ethylmaleimide]
In vivo rabbit eyes [1]
  LECs on the lens capsule bag under microscope: no LECs on the lens capsule bag
In vivo rabbit eyes [1]; 3 and 10 weeks follow up
  development of CPCO or PPCO: no CPCO or PPCO develops
In vivo rabbit eyes [1]; solution introduced directly
  intraocular inflammatory reaction: heavy intraocular inflammatory reaction in the early period and posterior synechiae
[2]
  LEC changes after five minutes of acute exposure: almost no changes are observed
[2]; after treatment
  LEC changes once put into PBS washing solution: shrink and large gaps form between the cells. The shrunken cells then detach
In vivo rabbit eyes [3]
  anterior chamber (AC) reaction: significantly reduces the AC reaction
